Results as given in patent US20140086901A1, “Inhibition of Post-Radiation Tumor Growth” (The Board of Trustees of the Leland Stanford Junior …, priority 2008, published 2014).
Read-outs that look alike come from different tables or passages of the source.

Legend:
[1] = mouse, in vivo
glioblastoma tumors = test: Intracranial glioblastoma tumor growth with or without irradiation (bioluminescence imaging); type: in vivo, mouse
Experimental: Tumor growth was analyzed by using an IVIS in vivo imaging system (Caliper Life Sciences, Hopkinton, Mass.) to monitor the bioluminescence imaging of brain tumor.
AMD3100 (Sigma-Aldrich) was prepared in sterile saline.
After tumor inoculation on brain, carragenan treatment was done every five days.

[2] = Body weight monitoring during drug treatment to assess side effects; settings: for loss in body weight during treatment: mice
MT1A2 tumors = test: MT1A2 tumor growth on pre-irradiated tissues of BM-transplanted mice; settings: 100 μg/kg intraperitoneally once per day for up to 6 weeks
[3] = system: CD45+CD11b+ and CD45+F4/80+ cells; test: Immunostaining of brain samples for BM-derived myelomonocytic cells in glioblastoma tumors; type: in vivo, mouse; settings: irradiation plus drug; harvested 18 days after irradiation
From the text: Primary antibodies for immunofluorescent staining included a rat monoclonal CD31/PECAM-1 (MEC13.3; BD Pharmingen, San Diego, Calif.), a rabbit polyclonal GFP antibody (Invitrogen, Eugene, Oreg.), a rabbit polyclonal MMP-9 (Abeam, Cambridge, Mass.), a biotinylated CD11b/macrophage-associated antigen-1α (M1/70; BD Pharmingen), a biotinylated CD11c (HL3; BD Pharmingen), a biotinylated Gr-1/Ly-6C (RB6-8C5; BD Pharmingen), rat monoclonal F4/80 (A3-1, Gnetex, Irvine, Calif.), and CD45 (BD Pharmingen). Anti phosphorylated CXCR-4 polyclonal antibody was obtained from Dr. J B Rubbin at Washington University.
Unless otherwise indicated, […] frozen sections of tumors were dried in air, hydrated with PBS, blocked with 5% goat serum in PBS (containing 0.03% Triton X-100) for 30 min, and incubated with primary antibodies for 2 hr at room temperature (RT). Sections were washed three times in PBS, followed by secondary antibody for 1 hr at RT. For glioblastomas, 5 μm frozen sections of tumors were dried in air, hydrated with PBS, blocked with 5% goat serum in PBS (containing 0.03% Triton X-100) for 30 min, and incubated with primary antibodies over night at 4° C. Sections were washed three times in PBS, followed by secondary antibody for 40 min at room temperature. […]

For carrageenan, the “loss in body weight during treatment” value [1] was “did not show any significant loss in the weight” and the “growth of irradiated tumors” value (glioblastoma tumors; treated 1, 3 and 7 days prior to implantation, then every five days, 15 Gy on day 26) was “significantly inhibited”.
In the case of O=P(O)(O)C(O)(Cn1ccnc1)P(=O)(O)O [ZA, aminobisphosphonate zolendronic acid], the “loss in weight during treatment” value ([2]; treated every day) is reported as “less than 10 % of body weight”, the “tumor growth on the irradiated site” value (MT1A2 tumors; MMP-9 KO+WT BM mice) is reported as “significant inhibition of tumor growth” and the “tumor growth on pre-irradiated tissues” value (MT1A2 tumors; WT+KO BM mice) is reported as “no effect on tumor growth”.
In the case of N#Cc1ccc(/C=C/C(=O)O)cc1 [NSC-134754], the “loss in body weight during treatment” value [2] is reported as “did not show any significant loss in the weight”, the post-irradiation tumor growth (glioblastoma tumors; irradiation on day 20 plus drug daily for three weeks) is reported as “decreased post-irradiation tumor growth” and the “CD45+CD11b+ cells in glioblastoma tumors” value [3] is reported as “absence”. For the same compound, the “CD45+F4/80+ cells in glioblastoma tumors” value [3] was “absence”.
With c1cc(CN2CCCNCCNCCCNCC2)ccc1CN1CCCNCCNCCCNCC1 [AMD3100] the “loss in body weight during treatment” value [2] was “did not show any significant loss in the weight”, the “growth of irradiated tumors” value (glioblastoma tumors; early tumor model, 2 Gy five times from day 11, drug for three weeks) was “significantly inhibited” and the “growth of irradiated tumors” value (glioblastoma tumors; late tumor model, 15 Gy on day 21, drug for three weeks) was “significantly inhibited”.
